Laboratory results reported in patent publication US6403626B1, “Benzimidazole derivatives” (Synaptic Pharmaceutical Corporation, priority 1994, dated 2002).
Where two headings read alike, the source gives them in different places.

How the values were obtained:
[1] = molecular target: T1, α1A Human Adrenergic Receptor (Homo sapiens, UniProt P25100); test: Equilibrium competition binding, [3H] prazosin, membranes of transfected LM(tk-) cells
T1 construct: expressed in transfected cells; host or cells: LM(tk-) cells
T1 sequence (P25100 1-572): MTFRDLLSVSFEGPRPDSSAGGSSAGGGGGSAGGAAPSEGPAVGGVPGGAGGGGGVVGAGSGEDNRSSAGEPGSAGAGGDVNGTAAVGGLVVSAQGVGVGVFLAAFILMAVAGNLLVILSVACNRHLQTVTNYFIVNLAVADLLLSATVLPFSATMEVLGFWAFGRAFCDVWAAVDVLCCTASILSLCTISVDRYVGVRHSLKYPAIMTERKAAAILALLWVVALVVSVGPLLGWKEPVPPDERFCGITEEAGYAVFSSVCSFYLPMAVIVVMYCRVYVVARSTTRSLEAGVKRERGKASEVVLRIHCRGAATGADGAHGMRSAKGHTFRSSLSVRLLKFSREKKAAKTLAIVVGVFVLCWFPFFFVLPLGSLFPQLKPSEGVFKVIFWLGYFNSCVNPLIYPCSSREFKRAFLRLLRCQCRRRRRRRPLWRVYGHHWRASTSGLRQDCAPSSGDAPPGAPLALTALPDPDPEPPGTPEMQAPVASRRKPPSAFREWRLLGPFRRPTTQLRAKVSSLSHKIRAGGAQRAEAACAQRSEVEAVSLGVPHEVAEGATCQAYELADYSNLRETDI

[2] = molecular target: T2, α2B Human Adrenergic Receptor (Homo sapiens, UniProt P18089); type: cell-based
T2 construct: expressed in transfected cells; host or cells: Y-1 cells
T2 sequence (P18089 1-450): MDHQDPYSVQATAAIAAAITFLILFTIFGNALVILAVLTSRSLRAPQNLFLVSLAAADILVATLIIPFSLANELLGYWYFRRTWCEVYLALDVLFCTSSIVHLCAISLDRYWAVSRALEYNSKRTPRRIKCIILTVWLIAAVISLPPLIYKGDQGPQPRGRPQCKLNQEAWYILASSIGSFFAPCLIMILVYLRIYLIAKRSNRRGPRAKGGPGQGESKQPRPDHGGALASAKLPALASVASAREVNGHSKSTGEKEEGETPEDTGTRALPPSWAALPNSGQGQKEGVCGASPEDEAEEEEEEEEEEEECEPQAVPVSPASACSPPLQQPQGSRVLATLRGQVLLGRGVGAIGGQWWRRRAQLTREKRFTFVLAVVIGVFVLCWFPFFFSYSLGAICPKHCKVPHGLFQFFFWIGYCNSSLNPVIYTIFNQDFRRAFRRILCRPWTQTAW

[3] = molecular target: T3, α2C Human Adrenergic Receptor (Homo sapiens, UniProt P18825); test: Equilibrium competition binding, [3H] rauwolscine, membranes of transfected LM(tk-) cells
T3 sequence (P18825 1-462): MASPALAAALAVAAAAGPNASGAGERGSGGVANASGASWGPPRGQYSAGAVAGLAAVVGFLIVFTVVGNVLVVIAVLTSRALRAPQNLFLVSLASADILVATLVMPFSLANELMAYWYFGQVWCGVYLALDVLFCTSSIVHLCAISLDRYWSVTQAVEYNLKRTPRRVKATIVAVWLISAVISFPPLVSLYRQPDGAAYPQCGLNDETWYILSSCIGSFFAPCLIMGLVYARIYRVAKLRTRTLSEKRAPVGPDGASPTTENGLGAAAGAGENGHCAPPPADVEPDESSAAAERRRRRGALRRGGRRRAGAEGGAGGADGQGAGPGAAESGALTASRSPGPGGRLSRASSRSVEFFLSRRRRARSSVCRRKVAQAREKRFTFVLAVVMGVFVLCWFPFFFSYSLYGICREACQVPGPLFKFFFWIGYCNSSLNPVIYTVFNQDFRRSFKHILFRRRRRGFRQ

[4] = inhibition of forskolin-stimulated cAMP, NA: Not Active, read-out: pEC50 Alpha-2 B (converted)
[5] = cloned human receptor, [3H] prazosin, read-out: pKi Alpha-1 A (converted)

Structure (SMILES)	Ki [1] [nM]	EC50 [2] [nM]	I.A Alpha-2 B [2]	Ki [3] [nM]	I.A Alpha-2 B ([2]; functional cAMP assay)	EC50 [2, 4] [nM]	Ki [1, 5] [nM]	pKi Alpha-1 A ([1]; cloned human receptor, [3H] prazosin)	pEC50 Alpha-2 B ([2]; inhibition of forskolin-stimulated cAMP, NA: Not Active)	pKi Alpha-2 C ([3]; cloned human receptor, [3H] rauwolscine)
c1nc2ccc(NC3=NCCN3)cc2[nH]1 [Example 1, 5-(2-Imidazolin-2-ylamino)Benzimidazole]	6760	44.7	1.00	70.8						
Brc1c(NC2=NCCN2)ccc2nc[nH]c12 [Example 2, 4-Bromo-5-(2-imidazolin-2-ylamino)Benzimidazole]	955			97.7	1.00	18.6				
Clc1c(NC2=NCCN2)ccc2nc[nH]c12 [Example 3, 4-Chloro-5-(2-imidazolin-2-ylamino)Benzimidazole]	537			100	1.00	12.6				
Cc1c(N=C2NCCN2)ccc2[nH]cnc12 [Example 4, 4-Methyl-5-(2-imidazolin-2-ylamino)Benzimidazole]				25.7		9.77	603			
Ic1c(NC2=NCCN2)ccc2nc[nH]c12 [Example 5, 4-Iodo-5-(2-imidazolin-2-ylamino)Benzimidazole]	537	46.8	1.00	24						
CCCc1c(NC2=NCCN2)ccc2nc[nH]c12 [Example 7, 4-n-Propyl-5-(2-imidazolin-2-ylamino)Benzimidazole]	269	200	1.00	41.7						
CCCCc1c(NC2=NCCN2)ccc2nc[nH]c12 [Example 8, 4-n-Butyl-5-(2-imidazolin-2-ylamino)Benzimidazole]	676				0.80	234				
Cn1cnc2cc(NC3=NCCN3)ccc21 [Example 9, 1-Methyl-5-(2-imidazolin-2-ylamino)Benzimidazole]	2750				1.00	58.9				
Cn1cnc2c(Br)c(NC3=NCCN3)ccc21 [Example 10, 1-Methyl-4-bromo-5-(2-imidazolin-2-ylamino)Benzimidazole]	617	102	1.00	15.5						
Cn1cnc2ccc(NC3=NCCN3)c(Br)c21 [Example 12, 3-Methyl-4-bromo-5-(imidazolin-2-ylamino)Benzimidazole]					1.00			7.02	7.51	7.59
COc1ccc(Cn2cnc3c(Br)c(NC4=NCCN4)ccc32)cc1 [Example 36, 1-(4-Methoxybenzyl)-4-bromo-5-(2-imidazolin-2-ylamino)Benzimidazole]	813			166	0.60	282				
OCCn1cnc2c(Br)c(NC3=NCCN3)ccc21 [Example 38, 1-(2-Hydroxyethyl)-4-bromo-5-(2-imidazolin-2-ylamino)Benzimidazole]	7240			1290	0.80	158				
Cc1nc2ccc(NC3=NCCN3)c(Br)c2[nH]1 [Example 42, 2-Methyl-4-bromo-5-(2-imidazolin-2-ylamino)Benzimidazole]	1620	97.7	0.60	214						
CCc1nc2ccc(NC3=NCCN3)c(Br)c2[nH]1 [Example 43, 2-Ethyl-4-bromo-5-(2-imidazolin-2-ylamino)Benzimidazole]	1740	162	0.80							
CC(C)c1nc2ccc(NC3=NCCN3)c(Br)c2[nH]1 [Example 44, 2-Isopropyl-4-bromo-5-(2-imidazolin-2-ylamino)Benzimidazole]	2040	91.2	0.80	214						
CC(C)(C)c1nc2ccc(NC3=NCCN3)c(Br)c2[nH]1 [Example 45, 2-tert-Butyl-4-bromo-5-(2-imidazolin-2-ylamino)Benzimidazole]	4570	851	0.70							
FC(F)(F)c1nc2ccc(NC3=NCCN3)c(Br)c2[nH]1 [Example 46, 2-Trifluoromethyl-4-bromo-5-(2-imidazolin-2-ylamino)Benzimidazole]	7080	589	0.80							
Brc1c(NC2=NCCN2)ccc2nc(C(c3ccccc3)c3ccccc3)[nH]c12 [Example 48, 2-Diphenylmethyl-4-bromo-5-(2-imidazolin-2-ylamino)Benzimidazole]				245	0.80	200	1230			
Brc1cc2nc[nH]c2c(Br)c1NC1=NCCN1 [Example 50, 4,6-Dibromo-5-(2-imidazolin-2-ylamino)Benzimidazole]	35.5	20.9	0.90	24.5						
Clc1cc(NC2=NCCN2)cc2[nH]cnc12 [Example 53, 7-Chloro-5-(2-imidazolin-2-ylamino)Benzimidazole]	309	18.2	1.00	89.1						
CCCCc1cc(NC2=NCCN2)cc2[nH]cnc12 [Example 56, 7-Butyl-5-(2-imidazolin-2-ylamino)Benzimidazole]	1260				0.30	219				
Clc1cc(NC2=NCCN2)c(Br)c2[nH]cnc12 [Example 60, 4-Bromo-7-chloro-5-(2-imidazolin-2-ylamino)Benzimidazole]	224	17.8	0.9	16.2						
